In patent publication US8226943B2, “Antibodies to notch receptors” (OncoMed Pharmaceuticals, Inc., priority 2008, dated 2012):
Values belong to the substance of their own block, whether it stands above or below them.

Columns and labels:
human Notch2 [1] = target: T1, human Notch2 (Homo sapiens, UniProt Q04721); assay: FACS binding to human Notch2 on stably transfected HEK-293 cells; design: expressed in transfected cells; host or cells: HEK-293, stably transfected; conditions: HEK-293 stably overexpressing human Notch2
T1 sequence (Q04721 26-2471): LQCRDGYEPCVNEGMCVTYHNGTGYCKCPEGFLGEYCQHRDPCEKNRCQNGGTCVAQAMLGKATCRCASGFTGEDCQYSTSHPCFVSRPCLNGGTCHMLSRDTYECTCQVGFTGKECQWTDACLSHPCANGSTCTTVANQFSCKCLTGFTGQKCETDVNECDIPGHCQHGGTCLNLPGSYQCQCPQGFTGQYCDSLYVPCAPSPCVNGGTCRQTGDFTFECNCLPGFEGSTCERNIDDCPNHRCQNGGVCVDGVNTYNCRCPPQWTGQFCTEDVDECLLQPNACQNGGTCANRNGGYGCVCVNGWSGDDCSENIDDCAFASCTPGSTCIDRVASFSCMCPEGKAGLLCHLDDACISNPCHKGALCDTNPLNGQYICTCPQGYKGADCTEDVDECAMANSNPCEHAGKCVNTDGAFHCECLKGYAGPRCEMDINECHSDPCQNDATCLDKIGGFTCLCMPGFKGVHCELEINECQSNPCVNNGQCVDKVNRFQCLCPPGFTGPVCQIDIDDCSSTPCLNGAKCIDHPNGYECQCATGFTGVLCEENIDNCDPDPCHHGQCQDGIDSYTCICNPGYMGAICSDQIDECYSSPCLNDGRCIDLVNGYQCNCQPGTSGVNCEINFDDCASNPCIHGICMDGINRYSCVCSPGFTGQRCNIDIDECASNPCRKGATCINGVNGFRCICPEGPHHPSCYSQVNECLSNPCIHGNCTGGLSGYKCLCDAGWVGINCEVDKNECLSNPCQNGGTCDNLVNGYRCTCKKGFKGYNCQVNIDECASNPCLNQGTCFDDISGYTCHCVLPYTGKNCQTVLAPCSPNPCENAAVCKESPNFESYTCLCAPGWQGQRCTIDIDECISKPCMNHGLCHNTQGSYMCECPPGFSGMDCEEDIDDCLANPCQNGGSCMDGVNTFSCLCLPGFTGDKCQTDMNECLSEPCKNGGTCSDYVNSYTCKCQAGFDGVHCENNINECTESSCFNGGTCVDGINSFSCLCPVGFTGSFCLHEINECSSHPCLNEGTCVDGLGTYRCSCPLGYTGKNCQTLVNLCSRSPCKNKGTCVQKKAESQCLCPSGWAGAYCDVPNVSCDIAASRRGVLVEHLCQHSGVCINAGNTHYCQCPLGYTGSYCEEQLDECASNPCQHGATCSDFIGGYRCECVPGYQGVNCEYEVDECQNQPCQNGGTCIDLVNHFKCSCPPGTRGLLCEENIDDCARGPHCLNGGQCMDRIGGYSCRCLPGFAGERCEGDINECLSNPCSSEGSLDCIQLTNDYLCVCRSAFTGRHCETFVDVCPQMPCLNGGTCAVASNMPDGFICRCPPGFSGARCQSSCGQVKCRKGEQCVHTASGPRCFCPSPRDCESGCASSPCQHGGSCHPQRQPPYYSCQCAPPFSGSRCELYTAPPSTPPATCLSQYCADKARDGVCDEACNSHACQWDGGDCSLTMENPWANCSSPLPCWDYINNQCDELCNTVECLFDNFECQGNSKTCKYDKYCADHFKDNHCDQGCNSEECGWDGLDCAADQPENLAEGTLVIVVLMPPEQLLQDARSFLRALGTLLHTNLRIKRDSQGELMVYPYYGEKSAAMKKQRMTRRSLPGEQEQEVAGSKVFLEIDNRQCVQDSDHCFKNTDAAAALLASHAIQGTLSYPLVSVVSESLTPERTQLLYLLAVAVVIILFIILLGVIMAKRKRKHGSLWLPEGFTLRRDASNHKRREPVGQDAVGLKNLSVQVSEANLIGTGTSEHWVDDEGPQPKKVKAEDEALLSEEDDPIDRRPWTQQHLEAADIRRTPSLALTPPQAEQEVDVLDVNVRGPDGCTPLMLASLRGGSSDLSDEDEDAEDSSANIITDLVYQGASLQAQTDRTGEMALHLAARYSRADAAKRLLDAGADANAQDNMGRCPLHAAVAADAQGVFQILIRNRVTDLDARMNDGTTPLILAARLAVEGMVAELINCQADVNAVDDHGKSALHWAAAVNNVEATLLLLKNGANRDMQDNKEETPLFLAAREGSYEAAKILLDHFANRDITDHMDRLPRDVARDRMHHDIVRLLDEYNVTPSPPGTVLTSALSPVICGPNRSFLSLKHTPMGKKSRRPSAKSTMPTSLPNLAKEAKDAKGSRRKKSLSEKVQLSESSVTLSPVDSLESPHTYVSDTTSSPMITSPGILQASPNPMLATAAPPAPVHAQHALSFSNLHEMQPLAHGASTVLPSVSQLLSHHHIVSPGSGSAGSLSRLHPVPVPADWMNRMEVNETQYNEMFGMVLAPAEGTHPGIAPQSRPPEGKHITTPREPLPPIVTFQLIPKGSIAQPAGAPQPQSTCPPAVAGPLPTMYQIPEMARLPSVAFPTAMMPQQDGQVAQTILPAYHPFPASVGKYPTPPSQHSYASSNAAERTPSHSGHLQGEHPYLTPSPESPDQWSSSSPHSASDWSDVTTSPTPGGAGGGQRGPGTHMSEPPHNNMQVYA
Protocol: A particular Fab (59R1) was identified that bound the human Notch2 receptor and blocked binding of Jagged1 to human Notch2. Binding of the 59R1 Fab to human Notch2 was verified by FACS assay using a stable human cell line HEK-293 which overexpressed human Notch2 (hN2) (FIG. 1A). Fab binding was detected by phycoerythrin (PE)-conjugated goat anti-human Fab (Jackson Immunochemicals). […] Ligand binding and blocking was determined by incubating hJagged 1 extracellular domain (ECD) fused to human Fc constant region with the cells and Fabs selected from the phage library and using PE-conjugated goat anti-human Fc gamma specific antibodies (Jackson Immunochemicals) for detection.
In addition, the 59R1 IgG2 antibody was assayed for its ability to block binding of DLL4 to the human Notch 2 receptor by FACS analysis. HEK-293 cells stably overexpressing human Notch2 were incubated with the antibody at various concentration and then detected for hNotch2 binding (FIG. 1C) by PE-conjugated goat anti-human Fc gamma specific antibody, or ligand blocking activity (FIG. 1D). Ligand blocking was determined by incubating the cells with human DLL4 ECD tagged with the rabbit Fc constant region and the 59R1 antibody at a range of concentrations, and then detecting the hDLL4 by PE-conjugated donkey anti-rabbit antibody. […]

[2] = tested on: PN4 pancreatic tumor cells; assay: PN4 pancreatic tumor xenograft growth; format: in vivo, NOD/SCID mice
Protocol: In another experiment, anti-Notch2/3 antibodies were tested for an effect on pancreatic tumor growth. NOD/SCID mice were injected with 30,000 PN4 pancreatic tumor cells sub-cu in the right flank, and tumors were allowed to grow until they had reached an average volume of 100 mm^3. Animals were randomized and dosing of anti-Notch2/3 antibody 59R1 or control antibody 1B711 was initiated. Antibodies were dosed at 15 mg/kg given once per week.
PN4 pancreatic tumor cells (50,000 cells per mouse) were injected subcutaneously into the flank region of Nod-Scid mice. Tumors were allowed to grow for 27 days until they had reached an average volume of ˜120 mm^3. Animals were randomized into four treatment groups (n=10/group) and treatments were initiated. One group received a control antibody (1B711) at 10 mg/kg twice per week; one group received gemcitabine at 40 mg/kg once per week plus the control antibody at 10 mg/kg twice per week; one group received 59R1 at 10 mg/kg twice per week, and the fourth group received the combination of 59R1 at 10 mg/kg twice per week and gemcitabine 40 mg/kg once per week. Tumor volumes were measured on the indicated days.

stroma of Colo205 tumors = assay: Microarray gene expression in stroma of treated xenograft tumors, Colo205; format: in vivo, mice; conditions: 59R1 vs control
B51 breast tumor cells = assay: B51 breast tumor recurrence after paclitaxel; format: in vivo, NOD-SCID mice; conditions: 59R1 10 mg/kg twice per week plus paclitaxel 15 mg/kg twice per week for 38 days, then antibody only
Protocol: B51 breast tumor cells (50,000 cells per mouse) were injected sub-cutaneously into the mammary fat pad of NOD-SCID mice. Tumors were allowed to grow for 50 days until they had reached an average volume of ˜100 mm^3. Animals were randomized (n=10/group) and treatments were initiated. One group received a control antibody (1B711) at 10 mg/kg twice per week and paclitaxel (Taxol) at 15 mg/kg twice per week and the other group received 59R1 at 10 mg/kg twice per week and paclitaxel at 15 mg/kg twice per week. Tumor volumes were measured on the indicated days. Treatments were carried out for 38 days until the tumor volumes had regressed to ˜50 mm^3, after which the paclitaxel treatments were halted and the antibody treatments continued for the duration of the experiment.

[3] = tested on: breast tumor xenograft line OMP-B34; assay: OMP-B34 breast tumor xenograft growth; format: in vivo, NOD/SCID mice; conditions: established tumors, 15 mg/kg once a week
Protocol: The 59R1 IgG2 antibody was also tested in vivo in the breast tumor xenograft lines OMP-B34, OMP-B39, OMP-B44, PE13, and UM-T1, the pancreas tumor xenograft line OMP-PN8, and the colon tumor xenograft line OMP-C8. These tumor xenograft lines were established by adhering to procedures described in Al-Hajj et al., 2003, Proc. Natl. Acad. Sci. USA, 100:3983-3988. Female NOD/SCID immuno-compromised mice 7-10 weeks old were used for the establishment of the breast tumor xenografts and male NOD/SCID mice were used for the OMP-Pn8 and OMP-C8 tumor-models (Harlan, Indianapolis, Ind.). The 59R1 IgG2 antibody was also tested in vivo in a Colo-205 colon tumor xenograft model. Female immunodeficient bg/nu XID mice on a Swiss CD-1 background were used for the Colo-205 xenograft tumor model. In case of the breast cancer models, slow-releasing estrogen pellets (0.36 mg) had to be implanted. Mice were subcutaneously injected on the right flank with 50,000 (OMP-B34, OMP-B39, OMP-B44, PE13, and UM-T1) or 1×10^7 (Colo-205) viable cells, respectively, in a mixture of PBS (without magnesium or calcium) and Matrigel at a 1:1 ratio. […] Antibodies were administered weekly and tumors measured twice weekly. […] Tumor volume was calculated as described Al-Hajj et al. (2003). Data are expressed as the mean and the mean±S.E.M. Group means were compared using Student's two-tailed, unpaired t-test. […]

human Notch2 [4] = target: T1, human Notch2; assay: DLL4-Fc induced receptor activation in transfected PC3 cells, human Notch2; format: cell-based; design: expressed in transfected cells; conditions: immobilized DLL4-Fc
Protocol: 59R5 was determined to have similar activity in blocking Notch2 and Notch3 signaling as 59R1. Receptor activation was determined in luciferase-based assays. PC3 tumor cells were transiently transfected with a human or mouse Notch receptor (human Notch2, murine Notch2, human Notch3, or murine Notch3) and […] inducible reporter construct. Transfected cells were incubated with different concentrations of 59R1 or 59R5 antibody in the presence of passively immobilized DLL4-Fc protein. Notch receptor activation was determined by measuring luciferase activity.

binding to human Notch2 (FACS) (human Notch2 [1]): confirmed
Substance: 59R1: human IgG2 antibody binding Notch2 and Notch3; heavy and light chain SEQ ID NO:16 and 18; ATCC PTA-9547
PN4 tumor growth, combination of 59R1 and gemcitabine ([2]; 59R1 10 mg/kg twice per week and gemcitabine 40 mg/kg once per week): inhibited
PN4 tumor growth compared to control ([2]; established tumors, 15 mg/kg once per week): significantly reduced
Fold 1416286_at (Rgs4) (stroma of Colo205 tumors): −3.08
Fold 1418829_a_at (Eno2) (stroma of Colo205 tumors): 1.79
Fold 1419302_at (Heyl) (stroma of Colo205 tumors): −3.28
Fold 1420941_at (Rgs5) (stroma of Colo205 tumors): −5.10
Fold 1422789_at (Aldh1a2) (stroma of Colo205 tumors): −1.73
Fold 1428361_x_at (Hba-al/Hba-a2) (stroma of Colo205 tumors): −8.91
Fold 1449280_at (Esm1) (stroma of Colo205 tumors): 2.07
Fold 1449632_s_at (Fkbp10) (stroma of Colo205 tumors): −1.72
Fold 1459713_s_at (Tmem16a) (stroma of Colo205 tumors): −1.90
B51 tumor recurrence after paclitaxel treatment (B51 breast tumor cells): recur more rapidly in the control group compared with the group treated with 59R1
B34 breast cancer growth relative to control antibody [3]: inhibit breast cancer growth

ligand-induced activation of human Notch2 receptor signaling (human Notch2 [4]): blocked
Substance: 59R5: human antibody that specifically binds human Notch 2 and human Notch 3; heavy and light chain SEQ ID NO:49 and 18; ATCC PTA-10170
